# Test results taken from patent US20150297609A1, “STERILE OPHTHALMIC PHARMACEUTICAL SUSPENSIONS” (SENTISS PHARMA PVT. LTD., priority 2012, published 2015).
# Assay: Particle size analysis of brinzolamide precipitated after autoclaving
# Format: physicochemical
# Conditions: precipitated during cooling after autoclaving, before size reduction
# Excerpt: The precipitated brinzolamide is preferably in partially amorphous or crystalline form, preferably in crystalline form, more preferably in highly crystalline form. The particles are preferably in the form of fine particles. More preferably the fine particulate has an average particle size of less than 100 μm, more preferably less than 50 μm. The particle size can be reduced further by sonication to an average particle size less than […], more preferably less than 30 pm or 20 pm. Any method can be used to determine particle size distribution. One preferred method is to use a light scattering or Coulter counter method. It is preferred that 90% of the particles (D(0.9)) be less than 15 pm, more preferably, D(0.9) is in the range of 10-15 pm. It is preferred that 100% of the particles (D(1)) be less than 30 pm, more preferably less than about 20 pm.
# During autoclaving due to high temperature and pressure, brinzolamide goes in solution. Upon completion of the autoclave cycle, during cooling, brinzolamide starts precipitating out. Brinzolamide forms needle shaped crystals of 1000 to 3000 microns. These needle shaped crystals of brinzolamide are further reduced in fine crystalline form to be used in the present invention formulation and the reduced particle size is as per table 3.
# This particle size is further reduced to […] through rapid cooling with stirring. […]
smiles,measurement,value
"CCN[C@H]1CN(CCCOC)S(=O)(=O)c2sc(S(N)(=O)=O)cc21 [API, (R)-(+)-4-ethylamino-2-(3-methoxypropyl)-3,4-dihydro-2H-thieno[3,2-e]-1,2-thiazine-6-sulfonamide-1,1-dioxide]",size of needle shaped crystals,1000 to 3000 microns
